# Test results: US5811465A, “Composition, device, and method for electrotransport agent delivery” (priority 1997, dated 1998)
# Read-outs that look alike come from different tables or passages of the source.
# Tests used:
# [1] = Electrical conductivity of human cadaver skin during electrotransport with permeation enhancer (Example 1); details: for Normalized Skin Conductivity (after 5 hrs): control = 1.00, 100 μA/cm^2, about 32° C.; for enhancement (skin conductivity), in words: comparison among tested enhancers, with/without ethanol
# Description: (§1) Human cadaver skin was prepared by first removing about 1 mm thick skin samples with an electric dermatome in the form of strips. The skin strips were placed in polyethylene bags, sealed and placed in a refrigerator at about 4° C. for temporary storage. Prior to use in the electrotransport cell, the skin strips were placed in one-liter beakers containing water at 60° C. for about 90 seconds with gentle stirring. Then, the skin strips were removed and placed onto the absorbent side of a piece of BENCHKOTE™ fabric with the dermis side down. Using flat tipped tweezers to retain the dermis, the epidermis was removed from each strip with a round-tip spatula. Each epidermis, stratum comeum side up, was transferred to a PYREX™ glass tray which was filled with water. Each floating epidermis was stretched essentially flat. After removal from the water 2.22 cm (7/8 in.) diameter disks of each epidermis were punched out of areas having negligible surface damage. The disks were stored at 4° C. in a sealed container with water droplets to maintain their moisture.
# (§2) The human cadaver epidermis disks were mounted between compartments 44 and 46 of the electrotransport permeation cell shown in FIG. 2. The cell was comprised of a polycarbonate support structure 52, including O-ring seals 54, and the assembly was held together with stainless steel bolt and nut 56. The human skin disk 42 separated the anodic compartment 44 and the cathodic compartment 46. A silver anode 48 was placed adjacent to the anodic compartment 44, and a silver chloride cathode 50 was placed adjacent to the cathodic compartment 46. The area of the human skin disk 42 exposed for transport was about 1.26 cm^2 and the volume of each of compartments 44 and 46 was about 2 ml. The electrodes 48, 50 were electrically connected to a galvanostat (not shown in FIG. 2), which can be set to apply the voltage necessary to achieve a constant predetermined level of electric current. The galvanostat was set to apply a current of 126 μA, ie, 100 μA/cm^2 across electrodes 48, 50 throughout each test.
# (§3) Dulbecco's phosphate buffered saline (about 0.15M NaCl with minor amounts of other ions, pH 7.0) was placed in the anodic receptor compartment 44. The skin resistance was calculated from the voltages applied by the galvanostat according to Ohm's law, ie, Rskin =ΔV/i, where ΔV is the potential applied by the galvanostat, and i is the applied current, 126 microamps.
# (§4) The system was maintained at about 32° C. by a Haake Model D1 heating block/water bath. The cell voltage was monitored over the entire procedure, and then averaged. The skin resistance was calculated from Ohm's law as described above using the measured ΔV.
# (§5) The samples were automatically taken from the receptor compartment every one to two hours, except for overnight experimentation, with an Isco Model 2230 autosampler and a metering pump. […] Each run was conduced in triplicate, including the control, to minimize error. All cells were set up with tissue from the same cadaver. The selected permeation enhancer was placed in the donor compartment, while the control cell's donor compartment contained no enhancer.
# (§6) Thus, the flux control and the skin conductivity control were each assigned a value of 1, and the flux/conductivity values obtained after addition of each permeation enhancer to the donor solution are normalized to the control.
# [2] = for Normalized Ketoprofen Flux (after 5 hrs): control = 1.00, 100 μA/cm^2, about 32° C.
# Description: as §1, §2, §3, §4, §5, §6
# [3] = Water solubility of permeation enhancer; type: physicochemical; details: at about 20° C.
# [4] = 10 mM enhancer in 20% Ethanol, pH 7.30 (ODAA), 7.00 (A3)
# [5] = 10 mM enhancer, without ethanol, pH 7.20 (DMDDA), 6.90 (DDPDCl)
# [6] = 25 mM enhancer in 20% Ethanol, pH 7.05
# [7] = 25 mM enhancer, without ethanol, pH 6.90
# [8] = 1,2-dodecane diol with vs without ethanol
compound,measurement,setting,value
"CCCCCCCCCCCC(=O)OCCCn1ccn(C)c1=O [A3, 1-methyl-4-imidazoline-2-one-3-propylenedodecanoate]",Normalized Skin Conductivity (after 5 hrs),[1]; [4],5.93
same,Normalized Ketoprofen Flux (after 5 hrs),[2]; [4],1.76
"CCCCCCCCCCCCN(C)C [DMDDA, N,N-dimethyl-dodecylamine]",Normalized Skin Conductivity (after 5 hrs),[1]; [5],2.71
same,Normalized Ketoprofen Flux (after 5 hrs),[2]; [5],1.37
"CCCCCCCCCCC(O)CO (stereo not shown) [1,2-Dodecanediol, 1,2-dodecane diol]",Normalized Skin Conductivity (after 5 hrs),[1]; [6],6.81
same,Normalized Skin Conductivity (after 5 hrs),[1]; [7],5.69
same,increase in skin conductivity by presence of ethanol,[1]; [8],about 20%
same,enhancement of skin conductivity relative to the other permeation enhancers,[1]; alone without ethanol,more than double
same,"enhancement (skin conductivity), in words",[1],effective for enhancing both flux and skin conductivity in the presence and in the absence of ethanol
same,water solubility,[3],greater than 25 mM
same,Normalized Ketoprofen Flux (after 5 hrs),[2]; [6],1.95
same,Normalized Ketoprofen Flux (after 5 hrs),[2]; [7],1.99
same,effect of ethanol as solvent on ketoprofen flux,[2]; [8],did not affect ketoprofen flux
same,"ketoprofen flux enhanced, relative to control value (in words)","[2]; addition of 1,2-dodecane diol",about double
same,"enhancement (flux), in words","[2]; ketoprofen flux, comparison among tested enhancers, with/without ethanol",effective for enhancing both flux and skin conductivity in the presence and in the absence of ethanol
"CCCCCCCCCCCCO [Dodecanol, dodecanol]",Normalized Skin Conductivity (after 5 hrs),[1]; [6],34.7
same,"enhancement (skin conductivity), in words",[1],greatest enhancement
same,"enhancement (flux), in words",[2],greatest enhancement
"octyl-N,N-dimethyl-dodecylamino acetate [ODAA]",Normalized Skin Conductivity (after 5 hrs),[1]; [4],4.61
